Source: paper PMC5461114, “A bioactive peptide amidating enzyme is required for ciliogenesis” (eLife, 2017)

Key:
rat PAM (PHM activity) = target: T1, rat PAM (PHM activity) (Rattus norvegicus, UniProt P14925); experiment: PHM activity assay in cell lysate; assay type: biochemical; conditions: mechanism-based PHM inhibitor; PBA added to lysate; vehicle ethanol
T1 construct: rat PAM expressed in mouse corticotropes, cell lysate; PHM domain activity measured
T1 sequence (P14925 36-976): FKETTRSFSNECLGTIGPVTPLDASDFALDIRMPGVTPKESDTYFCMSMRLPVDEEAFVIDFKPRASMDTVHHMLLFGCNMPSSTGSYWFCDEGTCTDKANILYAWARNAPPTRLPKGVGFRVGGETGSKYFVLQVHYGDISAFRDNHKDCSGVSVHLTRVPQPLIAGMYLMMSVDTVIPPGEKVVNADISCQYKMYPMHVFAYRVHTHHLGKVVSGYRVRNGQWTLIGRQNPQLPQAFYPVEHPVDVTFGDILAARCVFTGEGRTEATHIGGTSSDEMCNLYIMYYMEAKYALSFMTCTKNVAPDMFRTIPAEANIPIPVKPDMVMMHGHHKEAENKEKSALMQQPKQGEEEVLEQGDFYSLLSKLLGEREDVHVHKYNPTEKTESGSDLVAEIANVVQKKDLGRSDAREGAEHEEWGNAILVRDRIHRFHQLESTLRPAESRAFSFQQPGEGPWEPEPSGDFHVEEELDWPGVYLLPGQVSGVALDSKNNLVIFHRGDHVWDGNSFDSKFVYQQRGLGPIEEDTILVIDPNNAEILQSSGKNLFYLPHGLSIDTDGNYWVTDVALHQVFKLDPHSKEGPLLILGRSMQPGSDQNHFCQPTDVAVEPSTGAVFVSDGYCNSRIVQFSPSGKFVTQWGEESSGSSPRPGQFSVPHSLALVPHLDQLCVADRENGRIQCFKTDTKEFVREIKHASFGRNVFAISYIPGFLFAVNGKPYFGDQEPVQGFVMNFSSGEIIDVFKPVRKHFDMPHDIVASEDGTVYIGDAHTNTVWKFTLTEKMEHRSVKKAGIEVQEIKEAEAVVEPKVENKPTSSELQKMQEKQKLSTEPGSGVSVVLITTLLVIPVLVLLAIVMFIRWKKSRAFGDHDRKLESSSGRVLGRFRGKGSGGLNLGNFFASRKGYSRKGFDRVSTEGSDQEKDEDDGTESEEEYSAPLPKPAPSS

CrPAM (PHM activity) = target: T2, CrPAM (PHM activity) (Chlamydomonas reinhardtii, UniProt A0A0S2C767); experiment: PHM activity assay in cell lysate; assay type: biochemical; conditions: mechanism-based PHM inhibitor; PBA added to lysate; vehicle ethanol
T2 construct: gene PAM; native full-length bifunctional membrane PAM (110 kDa) in detergent cell lysate; PHM domain activity measured
T2 sequence (A0A0S2C767 22-926): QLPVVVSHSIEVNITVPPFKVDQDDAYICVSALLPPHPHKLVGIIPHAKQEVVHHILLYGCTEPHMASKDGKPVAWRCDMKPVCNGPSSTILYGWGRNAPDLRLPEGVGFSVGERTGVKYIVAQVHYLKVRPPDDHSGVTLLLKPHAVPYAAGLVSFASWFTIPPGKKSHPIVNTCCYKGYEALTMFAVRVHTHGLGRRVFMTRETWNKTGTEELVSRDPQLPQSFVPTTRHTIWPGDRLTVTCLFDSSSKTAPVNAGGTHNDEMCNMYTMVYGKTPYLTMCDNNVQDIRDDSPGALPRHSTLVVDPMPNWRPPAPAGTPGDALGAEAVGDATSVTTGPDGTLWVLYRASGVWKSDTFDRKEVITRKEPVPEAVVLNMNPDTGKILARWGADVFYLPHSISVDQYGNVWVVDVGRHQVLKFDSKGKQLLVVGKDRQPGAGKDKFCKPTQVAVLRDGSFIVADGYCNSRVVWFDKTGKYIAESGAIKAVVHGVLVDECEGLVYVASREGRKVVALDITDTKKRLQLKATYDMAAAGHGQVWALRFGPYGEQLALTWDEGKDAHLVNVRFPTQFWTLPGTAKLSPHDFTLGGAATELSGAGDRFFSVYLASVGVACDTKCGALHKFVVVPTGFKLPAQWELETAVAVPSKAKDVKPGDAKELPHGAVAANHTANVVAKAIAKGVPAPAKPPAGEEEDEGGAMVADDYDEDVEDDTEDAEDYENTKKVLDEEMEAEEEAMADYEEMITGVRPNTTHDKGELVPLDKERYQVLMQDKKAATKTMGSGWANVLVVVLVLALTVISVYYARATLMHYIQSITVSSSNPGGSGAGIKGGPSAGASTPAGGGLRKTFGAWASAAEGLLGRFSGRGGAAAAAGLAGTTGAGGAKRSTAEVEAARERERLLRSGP

Question: For `O=C(O)CC=Cc1ccccc1` [4-phenyl-3-butenoic acid], which PHM specific activity (rat PAM (PHM activity)) is on record?
Answer: PHM specific activity was greatly reduced in both lysates in the presence of PBA

Question: And the PHM specific activity (CrPAM (PHM activity))?
Answer: did inhibit both mammalian and C. reinhardtii PHM activities
